From patent US6720008B2, “Composition and method for the encapsulation of water-soluble molecules into nanoparticles” (PR Pharmaceuticals, Inc., priority 2002, dated 2004)

Assay: Solubility of eosin in oil and organic solvent
Type: physicochemical
Description: A water/oil microemulsion was prepared as follows: 1.0 ml isopropyl myristate was added to 1.4 ml of a surfactant mixture consisting of polyoxyethylene sorbitan monooleate (Tween 80): sorbitan monolaurate (Span 20): ethanol in a 45:30:25 volume ratio. Next, 0.6 ml of a 6% (w/v) eosin Y solution was added and the mixture briefly vortexed until an optically clear, single phase solution resulted (it was confirmed that eosin was not soluble in the oil or the ethyl acetate prior to formulation of the microemulsion nanocapsules).
A water/oil microemulsion was prepared by adding 0.5 ml hexadecane to a surfactant mixture consisting of polyoxyethylene sorbitan monooleate (Tween 80): sorbitan monolaurate (Span 20): ethanol in a 45:30:25 volume ratio. To that mixture, 0.35 ml of a 6% (w/v) eosin Y solution was added. […] Nanoparticles were formed and the eosin encapsulation was measured as described in Example 1. The amount of eosin incorporated into nanocapsules was 98% of the initial quantity added.

- solubility of eosin in hexadecane (conditions of Example 2): not to be soluble
- solubility of eosin in the oil or the ethyl acetate (oil = isopropyl myristate, prior to formulation of the microemulsion nanocapsules): not soluble
Compound: O=C1OC2(c3ccccc31)c1cc(Br)c(O)c(Br)c1Oc1c2cc(Br)c(O)c1Br [eosin, eosin Y]
